# According to ChEMBL document CHEMBL5584340, “Discovery of Novel Antiosteoporosis Leads with Bone Resorption Inhibition and Anabolic Promotion through a Chemotype-Assembly Approach” (J Med Chem, 2024):
# Key:
# BMDM [1] = assay: Anti-osteoclastogenic activity in M-CSF/RANKL-induced C57BL/6 mouse BMDM cells assessed as inhibition of M-CSF/RANKL-stimulated osteoclast differentiation at 10 uM measured after 5 days by TRAP staining based microscopic analysis relative to control; type: functional; design: scale not given: the % may be the effect or the level left; conditions: time 5 day
# C3H 10T1/2 = assay: Anabolic activity in mouse C3H 10T1/2 cells by measuring fold change in osteoblast differentiation at 10 uM incubated for 7 days by ALP staining based analysis; type: functional; conditions: time 7 day
# BMDM [2] = assay: Anti-osteoclastogenic activity in M-CSF/RANKL-induced C57BL/6 mouse BMDM cells assessed as inhibition of M-CSF/RANKL-stimulated osteoclast differentiation measured after 5 days by TRAP staining based microscopic analysis; type: functional, cell-based; conditions: C57BL/6, BMDM, 120 h
# [3] = Cytotoxicity against mouse RAW264.7 cells incubated for 48 hrs by CCK-8 assay; type: toxicity, cell-based
SMILES,Activity (BMDM [1]) [%],IC50 (BMDM [2]) [µM],other results
Cc1cc(C)c(S(=O)(=O)Nc2ccc(C(=O)O)cc2)cc1C,<10,,
CN1C(=O)[C@@H](/N=N/c2ccccc2C(=O)O)N(C)C1=S,50,,fold change (FC) (C3H 10T1/2): 3.9
Cc1ccc(-c2cc(C(=O)O)c3cccc(C)c3n2)cc1,<10,,
O=C(O)c1cc(Cl)ccc1C(=O)Nc1nc2ccccc2s1,,3.5,CC50 at 48 h [3]: 1330 µM
NC(Cc1cc(I)c(Oc2cc(I)c(O)c(I)c2)c(I)c1)C(=O)O (stereo not given) [THYROXINE],<10,,
COc1ccccc1-c1cc(C(=O)O)c2ccccc2n1,<10,,
Cc1ccc(-c2nc3ccccc3c(C(=O)O)c2C)cc1,<10,,
Cn1ncc2c(Nc3ccc(C(=O)O)cc3)ncnc21,50,,fold change (FC) (C3H 10T1/2): 3.2
CC(C)(C)c1ccc(-c2cc(C(=O)O)c3ccccc3n2)cc1,80,,fold change (FC) (C3H 10T1/2): <2
COc1ccc(-c2nc(NC(=O)C3CCCCC3C(=O)O)sc2C)cc1 (stereo not given),<10,,
Cc1cccc(C)c1NC(=O)c1ccccc1C(=O)O [FTAXILIDE],80,,fold change (FC) (C3H 10T1/2): 6
O=C1NC(=O)C(=NNc2cccc(C(=O)O)c2)C(=O)N1,<10,,
COc1cccc(-c2cc(C(=O)O)c3ccccc3n2)c1,<10,,
Cc1ccc2nc(-c3ccc(Cl)cc3)cc(C(=O)O)c2c1,80,,fold change (FC) (C3H 10T1/2): 2.4
O=C(Nc1nccs1)c1cccc(F)c1C(=O)O,,3.16,CC50 at 48 h [3]: 930 µM
Cc1ccc(C)c(-c2cc(C(=O)O)c3ccccc3n2)c1,<10,,
Cc1ccc(C(=O)Nc2nccs2)c(C(=O)O)c1,,12.8,CC50 at 48 h [3]: 46.9 µM
O=C(O)c1ccccc1C(=O)Nc1nc2ccccc2s1,,2.35,CC50 at 48 h [3]: 380 µM
O=C(O)c1ccccc1C(=O)Nc1ccccn1,,14.4,CC50 at 48 h [3]: 3820 µM
O=C(O)c1cccc(Nc2nc3ccccc3[nH]2)c1,33,,
CCOC(=O)c1sc(NC(=O)c2ccccc2C(=O)O)nc1C,,> 33,
O=C(O)c1ccccc1SCc1cc(O)nc(O)n1,90,,fold change (FC) (C3H 10T1/2): 8.2

SMILES,Activity (BMDM [1]) [%],IC50 (BMDM [2]) [µM],other results
Cc1cccc(C(=O)Nc2scc(-c3cccs3)c2C(=O)O)c1,<10,,
Nc1ccc(-c2cc(C(=O)O)c3ccccc3n2)cc1,<10,,
O=C(O)c1ccc(-c2cnc3ccccc3n2)cc1,<10,,
CCOC(=O)c1sc(NC(=O)c2cc3ccccc3cc2C(=O)O)nc1C,,2.35,CC50 at 48 h [3]: 506 µM
Cc1ccc(-c2cc(C(=O)O)c3ccccc3n2)c(C)c1,<10,,
CCc1ccc(-c2cc(C(=O)O)c3ccccc3n2)cc1,30,,
COc1ccc(-c2cc(C(=O)O)c3ccccc3n2)cc1OC,40,,
O=C(O)c1cc(Cl)ccc1C(=O)Nc1nccs1,,2.02,CC50 at 48 h [3]: 144 µM
Cc1cccc(NC(=O)c2ccccc2C(=O)O)c1C,<10,,
O=C(O)c1ccccc1C(=O)Nc1nc2c(s1)CCCC2,<10,,
COc1ccc(-c2occ(C(=O)O)c2C(=O)O)cc1,<10,,
NC(Cc1cc(I)c(Oc2ccc(O)c(I)c2)c(I)c1)C(=O)O (stereo not given) [RATHYRONINE],<10,,
NCCCC(O)(P(=O)([O-])O)P(=O)(O)O.[Na+] [ALENDRONATE SODIUM],81,0.39,
COc1cccc(C(=O)O)c1C(=O)Nc1nccs1,,3.94,CC50 at 48 h [3]: 36.3 µM
Cc1csc(NC(=O)c2ccccc2C(=O)O)n1,,12.4,CC50 at 48 h [3]: 212 µM
O=C(O)c1ccc2[nH]c(-c3cccc(-c4nc5cc(C(=O)O)ccc5[nH]4)c3)nc2c1,20,,
O=C(O)c1cccc(NS(=O)(=O)c2ccc(I)cc2)c1,<10,,
Cc1cc(C(=O)O)ccc1-c1ccc(CO)o1,<10,,
O=C(Nc1nccs1)c1cccc(O)c1C(=O)O,,> 33,
CN(CCCC(=O)O)c1nc(-c2ccc(Br)cc2)cs1,<10,,
COC(=O)c1ccccc1C(=O)Nc1nccs1,,28.1,CC50 at 48 h [3]: 498 µM
